Tests used:
GRP94 [1] = target: T1, GRP94 (Sus scrofa, UniProt Q29092); test: [3H]-NECA binding assay (vacuum filtration); design: species or system porcine
T1 construct: GRP94 was purified from porcine pancreas rough microsomes; from tissue; host or cells: porcine pancreas rough microsomes (lumenal contents)
Method: (§1) Where indicated, binding reactions were performed in either buffer C (10 mM Tris, pH 7.5, 50 mM KCl, 5 mM MgCl2, 2 mM DTT, 0.01% NP-40, 20 mM Na2MoO4) or 50 mM Tris, pH 7.5, 10 mM Mg(OAc)2. […] Vacuum filtration was performed with an Amersham Pharmacia Biotech (Piscataway, N.J.) vacuum filtration manifold.
Filters were rapidly washed with 3×4 ml of ice cold 50 mM Tris, pH 7.5, placed in 5 ml of scintillation fluid (SAFETYSOLVE™, RPI of Mt. Prospect, Ill.), vortexed, and counted by liquid scintillation spectrometry. […] All binding reactions were performed in triplicate and corrected by subtraction of background values, determined in binding reactions lacking GRP94.

BiP = test: [3H]-NECA binding assay (vacuum filtration); design: species or system porcine; conditions: 20 nM [3H]-NECA, 60 min on ice
GRP94 [2] = target: T1, GRP94; test: Isothermal titration calorimetry; format: binding, porcine
Method: Isothermal Titration Calorimetry. Isothermal calorimetry experiments were performed at 25° C. using a MSC calorimeter (MicroCal Inc. of Northampton, Mass.). […] The reaction chamber (1.3 mL) contained 5 μM GRP94. Necessary corrections were made by subtracting the heats of dilution resulting from buffer addition to protein solution and ligand solution into buffer.

GRP94 [3] = target: T1, GRP94; test: [3H]-NECA competitive displacement assay; format: binding, porcine; conditions: 10 mM Mg(OAc)2 versus nominal magnesium
Method: as §1
All binding reactions were performed in triplicate and corrected by subtraction of background values, determined in binding reactions lacking GRP94.

GRP94 [4] = target: T1, GRP94; test: GRP94 autophosphorylation assay; format: biochemical, porcine; conditions: 180 μM NECA or radicicol in 3.6% DMSO, 5 μg/ml heparin, 5 mM GTP
Method: (§2) Phosphorylation Assays. To assay for GRP94 autophosphorylation, 1 μM GRP94 was incubated with γ-[^32P]ATP (6000 cpm/pmol) (Amersham Pharmacia Biotech of Piscataway, N.J.), diluted with cold ATP to yield a final concentration of 0.15 mM ATP in a buffer containing 10 mM Mg(OAc)2 and 50 mM K-Hepes, pH 7.4. For the casein kinase assay, 1 unit of casein kinase II was incubated as described above, with the addition of 4 μM casein. […] The 25 μl reaction mixtures were incubated at 37° C. for 1 hour and quenched by addition of 10% trichloroacetic acid. Samples were analyzed by 10% SDS-PAGE gels and the phosphorylated species were quantitated using a Fuji MACBAS1000™ phosphorimaging system (Fuji Medical Systems of Stamford, Conn.).

casein kinase II = casein kinase II (Homo sapiens, UniProt P68400); test: Casein kinase assay; format: biochemical; conditions: 180 μM NECA or radicicol in 3.6% DMSO, 5 μg/ml heparin, 5 mM GTP; 4 μM casein
Method: as §2

GRP94 [5] = target: T1, GRP94; test: ATPase assay (HPLC of ATP/ADP); format: biochemical, porcine
Method: ATPase Assay. 100 μl reactions consisting of 1 μM GRP94 monomer, various concentrations of MgATP (pH 7.0), and 50 mM K-Hepes, pH 7.4, were incubated for two hours at 37° C. Samples were then spun through a CENTRICON®-30 (Amicon of Beverly, Mass.) at 10,000 rpm, 4° C. to separate protein from nucleotide. A final concentration of 50 mM (NH4)2HPO4, pH 7.0, and 4 μM AMP, pH 7.0, was added to dilutions of the above samples and centrifuged at 15,200 rpm for 5 minutes at 4° C. 100 μL of supernatant was then fractionated on a […]™ SAX column (Alltech of Deerfield, Ill.), using a Series 1050 Hewlett Packard HPLC system. Elution of nucleotides was performed by step gradient elution using a mobile phase of 150 mM (NH4)2HPO4, pH 5.2, at 1.2 ml/min for the first ten minutes, followed by 300 mM (NH4)2HPO4, pH 5.2, at a flow rate of 2 ml/min for the remainder of the elution. In this protocol, ADP and ATP were well resolved, with ADP eluting at 7 minutes and ATP at 12 minutes. Peak height values were used in calculations of percent hydrolysis and ADP formation. Spontaneous hydrolysis was determined for each ATP concentration in paired incubations lacking GRP94. The AMP was used as an internal reference standard to control for equivalent sample loading.

GRP94 [6] = target: T1, GRP94; test: Tryptophan fluorescence (tertiary conformational state); format: biochemical, porcine; conditions: 50 μM NECA, 50 μM geldanamycin, 2.5 mM ATP or 2.5 mM ADP; 1 h 37° C.
Method: Tryptophan Fluorescence. Tryptophan fluorescence measurements were conducted in a FLUOROMAX™ spectrofluorometer (Spex Industries, Inc. of Edison, N.J.) with the slit widths set to 1 nm for both excitation and emission. […] All spectra were corrected by subtraction of buffer or buffer plus ligand samples. GRP94 (50 μg/ml) was incubated in buffer A supplemented with 10 mM Mg(OAc)2 and the following concentrations of ligands for 1 hour at 37° C. […] Samples were then cooled to room temperature, transferred to a quartz cuvette, and the spectra collected.

T1 sequence (Q29092 22-804): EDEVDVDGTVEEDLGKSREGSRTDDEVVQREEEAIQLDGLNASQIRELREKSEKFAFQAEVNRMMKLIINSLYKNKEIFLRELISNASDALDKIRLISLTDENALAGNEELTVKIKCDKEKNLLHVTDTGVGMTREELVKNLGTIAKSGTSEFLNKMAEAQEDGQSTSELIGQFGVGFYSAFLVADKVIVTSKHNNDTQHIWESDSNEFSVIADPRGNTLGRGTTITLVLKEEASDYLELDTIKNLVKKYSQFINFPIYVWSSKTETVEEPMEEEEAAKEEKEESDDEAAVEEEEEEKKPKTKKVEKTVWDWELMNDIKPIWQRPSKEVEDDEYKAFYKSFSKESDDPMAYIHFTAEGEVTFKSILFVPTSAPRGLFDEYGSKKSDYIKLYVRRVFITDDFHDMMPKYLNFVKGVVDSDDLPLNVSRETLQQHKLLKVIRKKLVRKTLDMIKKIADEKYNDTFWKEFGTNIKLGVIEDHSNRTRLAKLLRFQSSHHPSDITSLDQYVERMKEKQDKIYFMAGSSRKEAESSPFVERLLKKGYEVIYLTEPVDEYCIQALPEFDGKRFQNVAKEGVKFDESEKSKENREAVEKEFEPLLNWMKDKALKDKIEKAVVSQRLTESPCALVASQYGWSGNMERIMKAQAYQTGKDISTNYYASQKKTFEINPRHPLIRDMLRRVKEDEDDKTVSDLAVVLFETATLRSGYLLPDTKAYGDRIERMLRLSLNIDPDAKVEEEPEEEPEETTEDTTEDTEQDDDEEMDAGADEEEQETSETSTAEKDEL
Sequence of casein kinase II (P68400 whole entry): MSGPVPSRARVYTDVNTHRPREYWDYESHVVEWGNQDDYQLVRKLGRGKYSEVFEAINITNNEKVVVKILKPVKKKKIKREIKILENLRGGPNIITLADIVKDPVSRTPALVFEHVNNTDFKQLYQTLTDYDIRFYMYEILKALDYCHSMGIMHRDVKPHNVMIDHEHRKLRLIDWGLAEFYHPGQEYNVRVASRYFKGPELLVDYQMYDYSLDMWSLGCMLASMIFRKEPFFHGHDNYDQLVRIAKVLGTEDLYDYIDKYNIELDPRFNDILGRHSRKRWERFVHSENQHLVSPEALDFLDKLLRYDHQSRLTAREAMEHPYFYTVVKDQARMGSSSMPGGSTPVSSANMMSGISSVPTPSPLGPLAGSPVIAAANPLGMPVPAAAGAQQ
Sequence of casein kinase II (P67870 whole entry partner): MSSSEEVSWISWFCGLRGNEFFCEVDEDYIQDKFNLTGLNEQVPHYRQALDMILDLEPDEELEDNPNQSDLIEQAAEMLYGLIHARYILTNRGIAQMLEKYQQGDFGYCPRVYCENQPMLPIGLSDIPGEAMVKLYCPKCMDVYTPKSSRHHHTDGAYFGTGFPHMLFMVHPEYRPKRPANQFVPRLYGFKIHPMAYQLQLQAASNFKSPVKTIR

## CCNC(=O)[C@H]1O[C@@H](n2cnc3c(N)ncnc32)[C@H](O)[C@@H]1O [NECA, N-ethylcarboxamidoadenosine]
GRP94 [1]
  slope of Hill plot: 1.2
GRP94 [1]; 20 nM [3H]-NECA, 60 min on ice
  [3H]-NECA binding activity: displayed readily detectable [^3H]-NECA binding activity
GRP94 [1]; FIG. 9B
  maximal binding stoichiometry (saturation curve): 1 molecule of NECA per molecule of GRP94 dimer
GRP94 [1]; radioligand filtration
  binding stoichiometry: 0.5 mol [^3H]-NECA/mol GRP94 monomer
BiP
  [3H]-NECA binding activity: [^3H]-NECA binding was not observed for Hsp90 or BiP
GRP94 [2]
  binding stoichiometry at saturation (summary of ligand binding studies and calorimetry): 1 mol NECA:mol GRP94 dimer
GRP94 [2]; 5 μM GRP94, 152 μM NECA stock, 25° C.
  binding stoichiometry by isothermal titration calorimetry: 1.1 mol NECA/mol GRP94 dimer
GRP94 [3]
  effect of excess Mg2+ on binding to GRP94: without effect on the binding of NECA or adenosine to GRP94
GRP94 [4]
  inhibition of GRP94 autophosphorylation (GRP94-derived kinase) activity: neither NECA nor radicicol, both of which bind to the N-terminal nucleotide binding domain of GRP94, significantly inhibit GRP94 derived or casein kinase II activity below the solvent background
Casein kinase II
  inhibition of casein kinase II activity: neither NECA nor radicicol, both of which bind to the N-terminal nucleotide binding domain of GRP94, significantly inhibit GRP94 derived or casein kinase II activity below the solvent background
GRP94 [5]
  inhibition of GRP94 ATPase activity: sensitive to inhibition by NECA
GRP94 [6]
  change of GRP94 tryptophan fluorescence: increased the tryptophan fluorescence
